From US6995173B2, “Methods for the treatment of central nervous system disorders in certain patient groups” (R.T. Alamo Ventures I, LLC, priority 2001, dated 2006)

Molecular target: T1, PDE6 partially purified from bovine retinal rod and activated by trypsin (Bos taurus, UniProt P11541+P23439)
T1 construct: from tissue; host or cells: bovine retinal rod
T1 sequence (P11541 2-856 limits assumed): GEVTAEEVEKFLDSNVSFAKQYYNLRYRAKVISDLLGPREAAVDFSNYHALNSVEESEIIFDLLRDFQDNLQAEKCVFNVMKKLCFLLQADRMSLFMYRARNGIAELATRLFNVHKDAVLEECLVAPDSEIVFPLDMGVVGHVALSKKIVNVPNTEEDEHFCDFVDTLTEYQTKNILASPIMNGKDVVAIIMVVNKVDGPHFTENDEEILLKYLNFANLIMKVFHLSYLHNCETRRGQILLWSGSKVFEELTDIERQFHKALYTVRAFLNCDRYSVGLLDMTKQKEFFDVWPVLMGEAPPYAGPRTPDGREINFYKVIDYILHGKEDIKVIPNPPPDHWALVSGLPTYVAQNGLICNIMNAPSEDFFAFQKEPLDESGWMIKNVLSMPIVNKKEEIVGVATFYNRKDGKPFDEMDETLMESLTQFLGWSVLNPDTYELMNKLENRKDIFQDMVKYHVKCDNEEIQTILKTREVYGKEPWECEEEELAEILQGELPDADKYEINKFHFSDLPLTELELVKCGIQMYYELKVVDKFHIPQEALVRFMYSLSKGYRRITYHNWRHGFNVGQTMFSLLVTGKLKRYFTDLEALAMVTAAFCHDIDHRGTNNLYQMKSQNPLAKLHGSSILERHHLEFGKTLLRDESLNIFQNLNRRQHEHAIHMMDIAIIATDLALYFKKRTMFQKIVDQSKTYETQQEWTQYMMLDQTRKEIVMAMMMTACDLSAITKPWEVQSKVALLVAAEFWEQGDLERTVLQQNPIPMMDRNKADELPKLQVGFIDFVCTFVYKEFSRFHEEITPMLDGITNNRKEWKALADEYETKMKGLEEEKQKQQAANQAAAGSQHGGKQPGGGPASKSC
T1 sequence (P23439 2-850 limits assumed): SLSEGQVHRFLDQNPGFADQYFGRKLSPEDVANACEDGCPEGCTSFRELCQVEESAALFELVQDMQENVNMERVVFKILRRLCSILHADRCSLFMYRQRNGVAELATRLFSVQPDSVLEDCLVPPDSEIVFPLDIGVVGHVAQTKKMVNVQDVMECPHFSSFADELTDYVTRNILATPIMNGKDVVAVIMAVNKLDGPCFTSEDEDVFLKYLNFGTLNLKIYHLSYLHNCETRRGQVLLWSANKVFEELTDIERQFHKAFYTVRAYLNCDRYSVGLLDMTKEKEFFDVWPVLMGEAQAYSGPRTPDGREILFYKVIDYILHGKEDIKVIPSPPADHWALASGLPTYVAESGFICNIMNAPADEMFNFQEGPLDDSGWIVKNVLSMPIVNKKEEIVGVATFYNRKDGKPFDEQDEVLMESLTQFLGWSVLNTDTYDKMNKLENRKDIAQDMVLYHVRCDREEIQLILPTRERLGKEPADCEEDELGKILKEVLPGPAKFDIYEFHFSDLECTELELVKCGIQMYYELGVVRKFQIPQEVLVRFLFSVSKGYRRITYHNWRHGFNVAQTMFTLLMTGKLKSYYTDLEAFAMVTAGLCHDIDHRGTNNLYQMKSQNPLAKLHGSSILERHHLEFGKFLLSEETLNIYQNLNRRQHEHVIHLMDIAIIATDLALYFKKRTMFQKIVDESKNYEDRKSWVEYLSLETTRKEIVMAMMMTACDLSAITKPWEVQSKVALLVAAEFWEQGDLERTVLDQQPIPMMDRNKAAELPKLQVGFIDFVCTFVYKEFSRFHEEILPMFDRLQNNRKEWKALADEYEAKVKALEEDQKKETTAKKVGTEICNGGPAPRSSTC
Experiment: PDE6 biochemical enzyme assay ([3H]cGMP hydrolysis, scintillation counting)
Conditions: Example 2; versus Viagra 0.3 μM
Description: PDE6 partially purified from bovine retinal rod and activated by trypsin was used. […] Each reaction was terminated by raising the temperature to 100° C. for 2 minutes. The resulting GMP was converted to guanosine by addition of 10 mg/ml snake venom nucleotidase and further incubated at 30° C. for 10 minutes. Unhydrolyzed cGMP was bound to AGI-X2 resin, and [^3H]guanosine remaining in the aqueous phase was quantitated by scintillation counting.

Q: For `Cn1cc([S+](C)[O-])c(=O)c2ccc(F)cc21` (racemic) [Flosequinan, 7-fluoro-1-methyl-3-methylsulphinyl-4-quinolone], which “times more compound on a molar basis than Viagra for such levels of PDE6 inhibition” value is on record?
A: more than 300 times
